The test system of one test is CD11b^+ cDCs. The test can be described thus: Antigen presentation by CD11b+ cDCs to OT-II CD4+ T cells in vitro. Format: cell-based, mice. The conditions noted are these: CD11b+ cDCs stimulated with 200 nM. As for the experimental part: Antigen presentation assays were performed as previously described ([38]). Briefly, ovalbumin (OVA) (10 µg/mL; Sigma A7641) pulsed cDCs were stimulated with or without TLR agonists for 4 h. OT-I CD8^+ T cells and OT-II CD4^+ T cells were purified and then labeled by carboxyfluorescein diacetate succinimidyl ester (CFSE) (1 µM; Molecular Probes C34554). CD8^+ cDCs were cocultured with OT-I CD8^+ T cells for 60 h, whereas CD11b^+ cDCs were cocultured with OT-II CD4^+ T cells for 96 h, both in the presence of granulocyte-macrophage colony-stimulating factor (GM-CSF) (20 ng/mL; Peprotech 315-03). Proliferated OT-I or OT-II T cells were defined as diluted CFSE signal analyzed by flow cytometry. The numbers of T cells were counted by AccuCheck counting beads (Molecular Probes PCB100). […] Cells were washed twice with cold medium and analyzed by flow cytometry.
Figure 5 SUP3 enhanced antigen presentation ability of CD11b^+ conventional dendritic cells (cDCs) and production of antibodies against thymus-dependent (TD) antigens. […] Three days after immunization, division of OT-II CD4^+ T cells from inguinal lymph nodes were analyzed by flow cytometry (B). Absolute numbers of proliferated OT-II CD4^+ T cells were calculated in (C). […] Cells were then thoroughly washed and cocultured with CFSE-stained OT-II CD4^+ T cells for 4 days and analyzed by flow cytometry. […]

The next test relates to NF-κB and MAPK pathways. The test can be described thus: Immunoblot of NF-κB and MAPK signaling in CD8+ cDCs. The conditions noted are these: 200 nM, 0–120 min, western blot. Format: cell-based, mice. On the procedure:
Immunoblot assay was performed as described elsewhere ([40], [41]). Briefly, whole-cell lysates were prepared by direct lysis in SDS loading buffer. Lysates were separated by 10% SDSPAGE and transferred to a polyvinylidene fluoride membrane (Millipore IPVH00010) for probing with antibody. Antibodies against phosphorylated NF-κB p65 (p-p65) (Ser 536) (Clone 93H1), p-SAPK/JNK (Thr183/Tyr185) (Clone 81E11), SAPK/JNK (Clone 56G8), p-p38 (Thr180/Tyr182) (Clone 3D7), and p38 (Clone D13E1) were purchased from Cell Signaling Technology. Antibodies against IκBα ([…]), p-ERK (Clone E-4), and ERK (Clone K-23) were purchased from Santa Cruz Biotech. The chemiluminescence signals were captured by Amersham Image 600 system (GE Healthcare).
Figure 4 SUP3 stimulated maturation of CD8^+ conventional dendritic cells (cDCs). (A) Purified CD8^+ cDCs were treated with SUP3 (200 nM) or Pam3 (200 nM) in the presence of granulocyte-macrophage colony-stimulating factor (GM-CSF) (20 ng/mL) for 24 h. The surface expression of costimulatory and major histocompatibility complex (MHC) molecules were then analyzed by flow cytometry. Representative data from three independent experiments were shown. […] Splenic CD8^+ cDCs were enriched, and surface expression of CD40 and CD86 was analyzed by flow cytometry. […] Supernatants were harvested 24 and 48 h post-stimulation, and cytokines were measured by ELISA. […]
On the technique in general: A western blot detects proteins with antibodies after separation by electrophoresis.

Where a SMILES comes first, the peptide text is derived from it. The star is where a group is joined. X1 = CCCCCCCCCCCCCCNC(=O)OC[C@H](C*)OC(=O)NCCCCCCCCCCCCCC; Palmitoyl = CCCCCCCCCCCCCCCC(=O)*

For the compound `CCCCCCCCCCCCCCCC(=O)N[C@@H](CSC[C@@H](COC(=O)NCCCCCCCCCCCCCC)OC(=O)NCCCCCCCCCCCCCC)C(=O)NCC(=O)N[C@@H](CCCCN)C(=O)N[C@@H](CCCCN)C(=O)N[C@@H](CCCCN)C(=O)O` [SUP3, (2S,5S,8S,14R,18R)-2,5,8-tris(4-aminobutyl)-4,7,10,13,21-pentaoxo-14-palmitamido-18-((tetradecylcarbamoyl)oxy)-20-oxa-16-thia-3,6,9,12,22-pentaazahexatriacontan-1-oic acid] (Palmitoyl-C(X1)GKKK-OH), the “OT-II CD4+ T cell proliferation in vitro” value in the test with CD11b^+ cDCs is recorded as “enhanced OT-II CD4^+ T cell proliferation”. For the same compound, in the test with NF-κB and MAPK pathways, the “NF-κB and MAPK signaling (p-p65, IκBα, p-ERK, p-JNK, p-p38) in CD8+ cDCs” value is “induced phosphorylation of p65 and degradation of IκBα and enhanced phosphorylation of ERK, JNK, and p38”.

(Values after PMC5318439, “The Novel Toll-Like Receptor 2 Agonist SUP3 Enhances Antigen Presentation and T Cell Activation by Dendritic Cells” (Frontiers in Immunology, 2017).)
